From patent US12568967B2, “Compositions comprising pyridine carboxylate herbicides with synthetic auxin herbicides or auxin transport inhibitors” (priority 2018, dated 2026)
Read-outs that look alike come from different tables or passages of the source.

Tests used:
[1] = tested on: Triticum aestivum (spring wheat, TRZAS); type: in vivo; settings: for % visual injury (Obs): alone 280 g/ha; for % visual injury (crop phytotoxicity): c1-2 Compound A 7.5/10
[2] = tested on: Hordeum vulgare (spring barley, HORVS); type: in vivo; settings: for % visual injury (Obs): alone 280 g/ha
Protocol: (§1) Seeds of the desired test plant species were planted in a 90:10% v/v (volume/volume) mixture of PRO-MIX® BX (Premier Tech Horticulture, Quakertown, PA, USA) and PROFILE® GREENS GRADE™ (Profile Products LLC, Buffalo Grove, IL, USA) planting mixture, which typically has a pH of 5.2 to 6.2 and an organic matter content of at least 50 percent, in plastic pots with a surface area of 103.2 square centimeters (cm^2). […] The plants were grown for 7-36 days (d) in a greenhouse with an approximate 14-hour (h) photo-period which was maintained at about 23° C. during the day and 22° C. during the night. Nutrients and water were added on a regular basis and supplemental lighting was provided with overhead metal halide 1000-Watt lamps as necessary. The plants were employed for testing when they reached the second or third true leaf stage.
(§2) Emulsifiable concentrates of each of each pyridine carboxylate herbicide (Compound A or Compound B) were prepared at 100 grams acid equivalent per liter (g ae/L). The emulsifiable concentrates also included a safener, cloquintocet-mexyl, at 120 grams active ingredient per liter (g ai/L), unless otherwise noted below. An aliquot of each emulsifiable concentrate was placed in a 25 mL glass vial and diluted with an aqueous mixture of 1.25% (v/v) ACTIROB® B esterified rapeseed oil (Bayer Crop Science, Research Triangle Park, NC, USA) or MSO® Concentrate with LECI-TECH® methylated soybean oil (Loveland Products, Loveland, CO, USA) to obtain concentrated stock solutions at the highest application rate for each herbicide, based upon a 12 milliliter (mL) application volume at a rate of 187 liters per hectare (L/ha). The concentrated stock solutions were further diluted with an aqueous mixture of 1.25% v/v ACTIROB® B or MSO® Concentrate with LECI-TECH® to obtain stock solutions at reduced application rates for each herbicide. Spray solutions of the herbicide combinations (Compound A or Compound B plus synthetic auxin herbicide or auxin transport inhibitor) were prepared by adding weighed amounts or aliquots of the synthetic auxin herbicide or auxin transport inhibitor to the stock solutions of Compound A or Compound B to form 12-mL spray solutions in two-way combinations.
(§3) The spray solutions were applied to the plant material with an overhead Mandel track sprayer equipped with 8002E nozzles calibrated to deliver 187 L/ha over an application area of 0.503 square meters (m^2) at a spray height of 18 inches (43 centimeters (cm)) above the average plant canopy. Control plants were sprayed in the same manner with the solvent blank. All pyridine carboxylate herbicide (component a) application rates are given as “g ae/ha” and all synthetic auxin herbicide or auxin transport inhibitor (component b) application rates are given as “g ai/ha.”
(§4) The treated plants and control plants were placed in a greenhouse as described above and watered by sub-irrigation to prevent wash-off of the test compounds. After 20-22 d, the condition of the test plants as compared with that of the control plants was determined visually and scored on a scale of 0 to 100 percent where 0 corresponds to no injury and 100 corresponds to complete kill.

[3] = tested on: Brassica napus (spring rape, BRSNN); assay: Greenhouse postemergence trial BRSNN; type: in vivo
Protocol: (§5) The plants were grown for 7-36 days (d) in a greenhouse with an approximate 14-hour (h) photo-period which was maintained at about 23° C. during the day and 22° C. during the night. Nutrients and water were added on a regular basis and supplemental lighting was provided with overhead metal halide 1000-Watt lamps as necessary. The plants were employed for testing when they reached the second or third true leaf stage.
(§6) The emulsifiable concentrates also included a safener, cloquintocet-mexyl, at 120 grams active ingredient per liter (g ai/L), unless otherwise noted below.
(§7) Control plants were sprayed in the same manner with the solvent blank. All pyridine carboxylate herbicide (component a) application rates are given as “g ae/ha” and all synthetic auxin herbicide or auxin transport inhibitor (component b) application rates are given as “g ai/ha.”
as §4

[4] = tested on: Polygonum convolvulus (wild buckwheat, POLCO); assay: Greenhouse postemergence trial POLCO; type: in vivo; settings: for % visual injury (Obs): alone 280 g/ha
Protocol: as §1, §2, §3, §4

[5] = tested on: Kochia scoparia (kochia, KCHSC); assay: Greenhouse postemergence trial KCHSC; type: in vivo; settings: KCHSC; for % visual injury (Obs): alone 280 g/ha
Protocol: as §1, §2, §3, §4

[6] = tested on: Viola tricolor (wild pansy, VIOTR); assay: Greenhouse postemergence trial VIOTR;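 also: greenhouse plants sprayed at second to third true leaf stage, injury rated visually after 20-22 d against solvent-blank sprayed controls, 0 meaning no injury and 100 complete kill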
Protocol: as §1, §2, §3, §4

[7] = tested on: Brassica napus (winter rape, BRSNW); assay: Greenhouse postemergence trial BRSNW; type: in vivo
Protocol: as §1, §2, §3, §4

[8] = tested on: Cirsium arvense (Canadian thistle, CIRAR); assay: Greenhouse postemergence trial CIRAR; type: in vivo
[9] = tested on: Sinapis arvensis (wild mustard, SINAR); assay: Greenhouse postemergence trial SINAR; type: in vivo; settings: SINAR
Protocol: as §5, §6, §7, §4

[10] = tested on: Salsola kali (Russian thistle, SASKR); assay: Greenhouse postemergence trial SASKR; type: in vivo; settings: SASKR;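 also: greenhouse plants sprayed at second or third true leaf stage, injury rated by eye after 20-22 d against solvent-blank controls, 0 meaning no injury, 100 complete kill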
Protocol: as §5, §6, §7, §4

[11] = tested on: Chenopodium album L. (common lambsquarters, CHEAL); assay: Greenhouse postemergence trial CHEAL; type: in vivo; settings: for % visual injury: c1-2 Compound A 7.5/10;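 as to all read-outs here: greenhouse plants sprayed at second to third true leaf stage, injury rated by eye after 20-22 d versus solvent-blank sprayed controls, 0 = no injury, 100 = complete kill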
Protocol: as §5, §6, §7, §4

[12] = tested on: Amaranthus retroflexus (pigweed, AMARE); assay: Greenhouse postemergence trial AMARE; type: in vivo; settings: for % visual injury: c1-2 Compound A 7.5/10;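 as to all read-outs here: Greenhouse-grown plants sprayed at second to third true leaf stage, injury rated by eye after 20-22 d versus solvent-blank sprayed controls, 0 = no injury, 100 = complete kill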
[13] = tested on: Matricaria chamomilla (wild chamomile, MATCH); assay: Greenhouse postemergence trial MATCH; type: in vivo; settings: MATCH;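 also: greenhouse plants sprayed at second to third true leaf stage, injury rated by eye 20-22 d later versus solvent-blank controls on 0–100 scale, 0 no injury, 100 complete kill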
Protocol: as §5, §6, §7, §4

[14] = tested on: Cyanus segetum (cornflower, CENCY); assay: Greenhouse postemergence trial CENCY; type: in vivo; settings: CENCY
[15] = tested on: Viola arvensis (field violet, VIOAR); assay: Greenhouse postemergence trial VIOAR; type: in vivo; settings: VIOAR
Protocol: as §1, §2, §3, §4

[16] = tested on: Veronica hederifolia (ivyleaf speedwell, VERHE); assay: Greenhouse postemergence trial VERHE; type: in vivo; settings: VERHE
[17] = tested on: Papaver rhoeas (corn poppy, PAPRH); assay: Greenhouse postemergence trial PAPRH; type: in vivo; settings: PAPRH
[18] = tested on: Veronica persica (bird's-eye speedwell, VERPE); assay: Greenhouse postemergence trial VERPE; type: in vivo
[19] = tested on: Papaver rhoeas (corn poppy), herbicide-resistant (PAPRH-R); assay: Greenhouse postemergence trial PAPRH-R; type: in vivo; settings: PAPRH-R
[20] = tested on: Capsella bursa-pastoris (shepherd's purse, CAPBP); assay: Greenhouse postemergence trial CAPBP; type: in vivo; settings: CAPBP
[21] = tested on: Stellaria media (chickweed, STEME); assay: Greenhouse postemergence trial STEME; type: in vivo; settings: STEME
Protocol: as §1, §2, §3, §4

[22] = tested on: Anthemis arvensis (field chamomile, ANTAR); assay: Greenhouse postemergence trial ANTAR; type: in vivo; settings: ANTAR
[23] = tested on: Matricaria discoidea (pineapple weed, MATMT); assay: Greenhouse postemergence trial MATMT; type: in vivo; settings: MATMT
[24] = tested on: Matricaria inodora (false chamomile, MATIN); assay: Greenhouse postemergence trial MATIN; type: in vivo; settings: MATIN
Protocol: as §1, §2, §3, §4

[25] = tested on: Lamium purpureum (purple deadnettle, LAMPU); assay: Greenhouse postemergence trial LAMPU
[26] = tested on: Triticum aestivum (winter wheat, TRZAW); assay: Greenhouse postemergence crop phytotoxicity TRZAW; type: in vivo; settings: TRZAW
[27] = tested on: Hordeum vulgare (winter barley, HORVW); assay: Greenhouse postemergence crop phytotoxicity HORVW; type: in vivo; settings: HORVW
[28] = partner herbicide 560 g/ha alone
[29] = c3 2,4-D-EHE 280, c4-5 A 7.5/10 + 2,4-D-EHE 280 g/ha
[30] = c3 Quinclorac 140, c4-5 A 7.5/10 + Quinclorac 140 g/ha
[31] = Papaver rhoeas, post-emergence, Quinclorac 560 g/ha, read-out: % visual injury Obs

O=C(O)COc1ccc(Cl)cc1Cl [2,4-D Choline, 2,4-D choline, reference compound]
% visual injury, Obs (crop phytotoxicity) ([1]; Triticum aestivum (spring wheat, TRZAS), in vivo): 0%
% visual injury, Obs (crop phytotoxicity) ([2]; Hordeum vulgare (spring barley, HORVS), in vivo): 0%
% visual injury, Obs ([3]; in vivo): 80%

CNC.O=C(O)COc1ccc(Cl)cc1Cl [2,4-D DMA]
% visual injury (Obs) ([4]; POLCO): 55%
% visual injury (Obs) [5]: 10%
% visual injury (Obs) ([1]; TRZAS): 5%
% visual injury (Obs) ([2]; HORVS): 0%
% visual injury (Obs) ([3]; BRSNN, alone 280 g/ha): 83%
% visual injury (Obs) ([6]; VIOTR, alone 280 g/ha): 65%

CCCCC(CC)COC(=O)COc1ccc(Cl)cc1Cl [2,4-D-EHE, 2,4-D-2-ethylhexyl, reference compound]
BRSNW % visual injury Obs ([7]; 2,4-D-EHE 280 g/ha (Table 36)): 65%
BRSNW Δ (Obs minus Exp) ([7]; 2,4-D-EHE 280 g/ha (Table 36)): 3%
visual injury, Obs ([7]; BRSNW, partner herbicide 560 g/ha alone): 100%
POLCO % visual injury Obs ([4]; 2,4-D-EHE 280 g/ha (Table 36)): 23%
POLCO Δ (Obs minus Exp) ([4]; 2,4-D-EHE 280 g/ha (Table 36)): 11%
visual injury, Obs ([4]; POLCO, partner herbicide 560 g/ha alone): 30%
CIRAR % visual injury Obs ([8]; 2,4-D-EHE 280 g/ha (Table 36)): 45%
visual injury, Obs ([8]; CIRAR, partner herbicide 560 g/ha alone): 65%
visual injury, Obs [9, 28]: 85%
visual injury, Obs [10, 28]: 65%
visual injury, Obs [5, 28]: 65%
% visual injury [11, 29]: 75%
AMARE % visual injury Obs ([12]; 2,4-D-EHE 280 g/ha (Table 36)): 45%
% visual injury [12, 29]: 70%
visual injury, Obs [13, 28]: 10%
% visual injury (crop phytotoxicity) [1, 29]: 0%
visual injury, Obs [14, 28]: 100%
visual injury, Obs [15, 28]: 60%
visual injury, Obs [16, 28]: 70%
visual injury, Obs [17, 28]: 60%
visual injury, Obs ([18]; VERPE, partner herbicide 560 g/ha alone): 65%
visual injury, Obs [19, 28]: 50%
visual injury, Obs [20, 28]: 70%
visual injury, Obs [21, 28]: 10%
visual injury, Obs [22, 28]: 60%
visual injury, Obs [23, 28]: 5%
visual injury, Obs [24, 28]: 10%
visual injury, Obs ([25]; LAMPU, partner herbicide 560 g/ha alone): 20%
visual injury, Obs ([6]; VIOTR, partner herbicide 560 g/ha alone): 65%

Cc1cc(Cl)ccc1OC(C)C(=O)O (stereo not shown) [Mecoprop]
% visual injury (Obs) ([7]; BRSNW, alone 280 g/ha): 63%
plant injury at 560 g/ha ([7]; Brassica napus, post-emergence, BRSNW, applied alone, 560 g/ha, read-out: % visual injury, Obs): 75%
% visual injury (Obs) ([4]; POLCO): 10%
% visual injury, Obs ([4]; POLCO, applied alone, 560 g/ha): 20%
% visual injury (Obs) ([8]; CIRAR, alone 280 g/ha): 68%
% visual injury, Obs ([8]; CIRAR, applied alone, 560 g/ha): 70%
% visual injury (Obs) ([9]; alone 280 g/ha): 80%
% visual injury, Obs ([9]; applied alone, 560 g/ha): 95%
% visual injury, Obs ([10]; applied alone, 560 g/ha): 50%
% visual injury (Obs) [5]: 68%
% visual injury, Obs ([5]; applied alone, 560 g/ha): 80%
% visual injury (Obs) ([11]; CHEAL, alone 280 g/ha): 73%
% visual injury (Obs) ([12]; AMARE, alone 280 g/ha): 58%
% visual injury (Obs) ([13]; alone 280 g/ha): 18%
% visual injury, Obs ([13]; applied alone, 560 g/ha): 10%
% visual injury (Obs) ([1]; TRZAS): 0%
% visual injury, Obs ([1]; TRZAS, applied alone, 560 g/ha): 0%
% visual injury (Obs) ([2]; HORVS): 0%
% visual injury, Obs ([2]; HORVS, applied alone, 560 g/ha): 0%
% visual injury, Obs ([14]; applied alone, 560 g/ha): 100%
% visual injury, Obs ([15]; applied alone, 560 g/ha): 10%
% visual injury, Obs ([16]; applied alone, 560 g/ha): 50%
% visual injury, Obs ([17]; applied alone, 560 g/ha): 65%
% visual injury, Obs ([18]; VERPE, applied alone, 560 g/ha): 30%
% visual injury, Obs ([19]; applied alone, 560 g/ha): 30%
% visual injury, Obs ([20]; applied alone, 560 g/ha): 60%
% visual injury, Obs ([21]; applied alone, 560 g/ha): 30%
% visual injury, Obs ([22]; applied alone, 560 g/ha): 10%
% visual injury, Obs ([23]; applied alone, 560 g/ha): 10%
% visual injury, Obs ([24]; applied alone, 560 g/ha): 65%
% visual injury, Obs ([26]; applied alone, 560 g/ha): 0%
% visual injury, Obs ([27]; applied alone, 560 g/ha): 0%
% visual injury, Obs ([25]; LAMPU, applied alone, 560 g/ha): 10%
% visual injury, Obs ([6]; VIOTR, applied alone, 560 g/ha): 65%

O=C(O)c1c(Cl)ccc2cc(Cl)cnc12 [Quinclorac, quinclorac, reference compound]
plant injury ([7]; Brassica napus, post-emergence, BRSNW, Quinclorac 560 g/ha, read-out: % visual injury Obs): 10%
pest or weed control ([4]; Fallopia convolvulus, post-emergence, POLCO, Quinclorac 560 g/ha, read-out: % visual injury Obs): 10%
pest or weed control ([8]; Cirsium arvense, post-emergence, CIRAR, Quinclorac 560 g/ha, read-out: % visual injury Obs): 30%
pest or weed control ([9]; Mutarda arvensis, post-emergence, Quinclorac 560 g/ha, read-out: % visual injury Obs): 10%
pest or weed control ([10]; Salsola kali, post-emergence, Quinclorac 560 g/ha, read-out: % visual injury Obs): 10%
pest or weed control ([5]; Bassia scoparia, post-emergence, Quinclorac 560 g/ha, read-out: % visual injury Obs): 10%
% visual injury [11, 30]: 0%
% visual injury [12, 30]: 0%
pest or weed control ([13]; Matricaria chamomilla, post-emergence, Quinclorac 560 g/ha, read-out: % visual injury Obs): 10%
% visual injury Obs ([1]; TRZAS, Quinclorac 560 g/ha): 0%
% visual injury (crop phytotoxicity) [1, 30]: 0%
% visual injury Obs ([2]; HORVS, Quinclorac 560 g/ha): 0%
% visual injury (crop phytotoxicity) ([2]; c1-2 Compound A 7.5/10, c3 Quinclorac 140, c4-5 A 7.5/10 + Quinclorac 140 g/ha): 5%
pest or weed control ([14]; Centaurea cyanus, post-emergence, Quinclorac 560 g/ha, read-out: % visual injury Obs): 60%
pest or weed control ([15]; Viola arvensis, post-emergence, Quinclorac 560 g/ha, read-out: % visual injury Obs): 30%
pest or weed control ([16]; Veronica hederifolia, post-emergence, Quinclorac 560 g/ha, read-out: % visual injury Obs): 30%
pest or weed control [17, 31]: 10%
pest or weed control ([18]; Veronica persica, post-emergence, VERVE, Quinclorac 560 g/ha, read-out: % visual injury Obs): 50%
pest or weed control [19, 31]: 50%
pest or weed control ([20]; Capsella bursa-pastoris, post-emergence, Quinclorac 560 g/ha, read-out: % visual injury Obs): 0%
pest or weed control ([21]; Stellaria media, post-emergence, Quinclorac 560 g/ha, read-out: % visual injury Obs): 5%
pest or weed control ([22]; Anthemis arvensis, post-emergence, Quinclorac 560 g/ha, read-out: % visual injury Obs): 0%
pest or weed control ([23]; Matricaria discoidea, post-emergence, Quinclorac 560 g/ha, read-out: % visual injury Obs): 0%
pest or weed control ([24]; Tripleurospermum inodorum, post-emergence, Quinclorac 560 g/ha, read-out: % visual injury Obs): 0%
% visual injury Obs ([26]; Quinclorac 560 g/ha): 0%
% visual injury Obs ([27]; Quinclorac 560 g/ha): 0%
pest or weed control at 560 g/ha ([25]; Lamium purpureum, post-emergence, read-out: % visual injury Obs): 10%
pest or weed control at 560 g/ha ([6]; Viola tricolor, post-emergence, read-out: % visual injury Obs): 10%
